# Results published in patent EP0561850B1, “7-SUBSTITUTED-6-FLUORO-1,4-DIHYDRO-4-OXO-QUINOLINE-3-CARBOXYLIC ACID COMPOUNDS USEFUL AS ANTIBACTERIAL AGENTS” (priority 1990, dated 1992).
# Assays:
# Experiment in all cases: Microbroth dilution (MHB) method, NCCLS M7-A2
# [1] = system: Enterobacter cloacae S-130; type: cell-based; conditions: Enterobacter cloacae, S130, Ecl S-130, inoculum 5 x 10^5 cfu/ml, 35 °C/18 hr, read-out: MIC
# Description: (§1) The test organisms were obtained from ATCC and clinical laboratories. The 96-well microtitre plates containing […] of serially diluted test compounds in Mueller Hinton Broth (MHB) (conc. range 64-0.03 µg/ml) were inoculated with […] of bacterial suspension in MHB so that an inoculum size of 5 x 10^5 cfu/ml was achieved.
# (§2) EC. (S- 63): Eschericia coli Ecl. (S- 130): Enterobacter cloacae Pa. (S- 67): Pseudomonas aeruginosa Kp. (S- 80): Klebsiella pneumoniae Pr.
# (§3) Microbroth Dilution (MHB) method; Inoculum, 5 x 10^5 cfu/ml; Incubation 35 °C/18 hr
# [2] = system: Providencia rettgeri S-121; type: cell-based; conditions: Providencia rettgeri, S121, Pr S-121, inoculum 5 x 10^5 cfu/ml, 35 °C/18 hr, read-out: MIC
# Description: as §1, §2, §3
# [3] = system: Klebsiella pneumoniae S-80; type: cell-based; conditions: Klebsiella pneumoniae, S80; Kp S-80; MHB; inoculum 5 x 10^5 cfu/ml; 35 °C/18 hr; read-out: MIC
# Description: as §1, §2, §3
# [4] = system: Staphylococcus aureus S-127; type: cell-based; conditions: Staphylococcus aureus, S127, Sa S-127, inoculum 5 x 10^5 cfu/ml, 35 °C/18 hr, read-out: MIC
# Description: as §1, §2, §3
# Eschericia coli S-63 = type: cell-based; conditions: Ec S-63, inoculum 5 x 10^5 cfu/ml, 35 °C/18 hr, read-out: MIC
# Description: as §1, §2, §3
# [5] = system: Pseudomonas aeruginosa S-67; type: cell-based; conditions: Pseudomonas aeruginosa, S67; Pa S-67; MHB; inoculum 5 x 10^5 cfu/ml; 35 °C/18 hr; read-out: MIC
# Description: as §1, §2, §3
# Sa 127M = type: cell-based, Staphylococcus aureus; conditions: Staphylococcus aureus, inoculum 5 x 10^5 cfu/ml, 35 °C/18 hr, read-out: MIC
# Description: as §1, §2, §3
Compound,MIC [1],MIC [2],MIC [3],MIC [4],MIC (Eschericia coli S-63),MIC [5],MIC (Sa 127M)
"C[C@H]1COc2c(N3CCC(n4ccnn4)C3)c(F)cc3c(=O)c(C(=O)O)cn1c23 (single isomer, unassigned; (-)) [Example 38]",1 µg/mL,1 µg/mL,1 µg/mL,0.12 µg/mL,0.25 µg/mL,8 µg/mL,0.5 µg/mL
"Cc1cn(C2CCN(c3c(F)cc4c(=O)c(C(=O)O)cn5c4c3OC[C@@H]5C)C2)nn1 (single isomer, unassigned; (-)) [Example 39]",1 µg/mL,1 µg/mL,1 µg/mL,0.03 µg/mL,0.25 µg/mL,8 µg/mL,0.12 µg/mL
"C[C@H]1COc2c(N3CCC(n4cncn4)C3)c(F)cc3c(=O)c(C(=O)O)cn1c23 (single isomer, unassigned; (-)) [Example 40]",1 µg/mL,0.5 µg/mL,1 µg/mL,1 µg/mL,1 µg/mL,8 µg/mL,0.5 µg/mL
"Cc1cn(C2CCN(c3c(F)c(C)c4c(=O)c(C(=O)O)cn(C5CC5)c4c3F)C2)nn1 (stereo not shown) [Example 21, 1-Cyclopropyl-6,8-difluoro-5-methyl-7-[3-(4-methyl-1,2,3-triazol-1-yl)pyrrolidin-1-yl]-1,4-dihydro-4-oxo-quinoline-3-carboxylic acid]",0.25 µg/mL,0.12 µg/mL,0.25 µg/mL,0.015 µg/mL,0.06 µg/mL,2 µg/mL,0.015 µg/mL
"Cc1cnnn1C1CCN(c2c(F)cc3c(=O)c(C(=O)O)cn(C4CC4)c3c2F)C1 (stereo not shown) [Example 22, 1-Cyclopropyl-6,8-difluoro-7-[3-(5-methyl-1,2,3-triazol-1-yl)pyrrolidin-1-yl]-1,4-dihydro-4-oxo-quinoline-3-carboxylic acid]",0.25 µg/mL,0.25 µg/mL,0.5 µg/mL,≤ 0.015 µg/mL,0.25 µg/mL,4 µg/mL,0.12 µg/mL
"Cc1c(F)c(N2CCC(n3cncn3)C2)c(F)c2c1c(=O)c(C(=O)O)cn2C1CC1 (stereo not shown) [Example 23, 1-Cyclopropyl-6,8-difluoro-5-methyl-7-[3-(1,2,4-triazol-1-yl)pyrrolidin-1-yl]-1,4-dihydro-4-oxo-quinoline-3-carboxylic acid]",0.25 µg/mL,0.5 µg/mL,0.5 µg/mL,≤ 0.015 µg/mL,0.12 µg/mL,4 µg/mL,≤ 0.015 µg/mL
"Cc1c(F)c(N2CCC(n3ccnn3)C2)c(F)c2c1c(=O)c(C(=O)O)cn2C1CC1 (stereo not shown) [Example 24, 1-Cyclopropyl-6,8-difluoro-5-methyl-7-[3-(1,2,3-triazol-1-yl)pyrrolidin-1-yl]-1,4-dihydro-4-oxo-quinoline-3-carboxylic acid]",0.25 µg/mL,0.5 µg/mL,0.5 µg/mL,≤ 0.015 µg/mL,0.12 µg/mL,4 µg/mL,≤ 0.015 µg/mL
"Cc1cn(C2CCN(c3c(F)c(N)c4c(=O)c(C(=O)O)cn(C5CC5)c4c3F)C2)nn1 (stereo not shown) [Example 25, 5-Amino-1-cyclopropyl-6,8-difluoro-7-[3-(4-methyl-1,2,3-triazol-1-yl)pyrrolidin-1-yl]-1,4-dihydro-4-oxo-quinoline-3-carboxylic acid]",0.25 µg/mL,0.25 µg/mL,0.25 µg/mL,≤ 0.015 µg/mL,0.06 µg/mL,2 µg/mL,0.03 µg/mL
"Cc1nnn(C2CCN(c3c(F)cc4c(=O)c(C(=O)O)cn(C5CC5)c4c3F)C2)c1C (stereo not shown) [Example 26, 1-Cyclopropyl-6,8-difluoro-7[3-(4,5-dimethyl-1,2,3-triazol-1-yl)pyrrolidin-1-yl]-1,4-dihydro-4-oxo-quinoline-3-carboxylic acid]",2 µg/mL,1 µg/mL,1 µg/mL,0.03 µg/mL,0.25 µg/mL,8 µg/mL,0.06 µg/mL
"Cc1cn(C2CCN(c3c(F)cc4c(=O)c(C(=O)O)cn(C5CC5)c4c3F)C2)nn1 (stereo not shown) [Example 27, 1-Cyclopropyl-6,8-difluoro-7-[3-(4-methyl-1,2,3-triazol-1-yl)pyrrolidin-1-yl]-1,4-dihydro-4-oxo-quinoline-3-carboxylic acid]",1 µg/mL,2 µg/mL,0.5 µg/mL,0.125 µg/mL,0.25 µg/mL,4 µg/mL,0.25 µg/mL
"Nc1c(F)c(N2CCC(n3cncn3)C2)c(F)c2c1c(=O)c(C(=O)O)cn2C1CC1 (stereo not shown) [Example 28, 5-Amino-1-cyclopropyl-6,8-difluoro-7-[3-(1,2,4-triazol-1-yl)pyrrolidin-1-yl]-1,4-dihydro-4-oxo-quinoline-3-carboxylic acid]",–,–,–,≤ 0.015 µg/mL,0.12 µg/mL,–,–
"O=C(O)c1cn(C2CC2)c2c(F)c(N3CCC(n4cncn4)C3)c(F)cc2c1=O (stereo not shown) [Example 29, 1-Cyclopropyl-6,8-difluoro-7-[3-(1,2,4-triazol-1-yl)pyrrolidin-1-yl]-1,4-dihydro-4-oxo-quinoline-3-carboxylic acid]",0.25 µg/mL,0.25 µg/mL,0.5 µg/mL,0.03 µg/mL,0.12 µg/mL,4 µg/mL,0.06 µg/mL
"COc1c(N2CCC(n3cncn3)C2)c(F)cc2c(=O)c(C(=O)O)cn(C3CC3)c12 (stereo not shown) [Example 34, 1-Cyclopropyl-6-fluoro-7-[3-(1,2,4-triazol-1-yl)pyrrolidin-1-yl]-8-methoxy-1,4-dihydro-4-oxo-quinoline-3-carboxylic acid]",0.5 µg/mL,0.5 µg/mL,0.5 µg/mL,0.5 µg/mL,0.5 µg/mL,8 µg/mL,–
"Nc1cn(C2CCN(c3c(F)c(N)c4c(=O)c(C(=O)O)cn(C5CC5)c4c3F)C2)nn1 (stereo not shown) [Example 41, 5-Amino-1-cyclopropyl-6,8-difluoro-7-(3-(4-amino-1,2,3-triazol-1-yl)-pyrrolidin-1-yl)-1,4-dihydro-4-oxo-quinoline-3-carboxylic acid]",–,–,–,0.03 µg/mL,0.12 µg/mL,–,–
NCc1cnnn1C1CCN(c2c(F)cc3c(=O)c(C(=O)O)cn(C4CC4)c3c2F)C1 (stereo not shown) [Example 44],0.25 µg/mL,1 µg/mL,1 µg/mL,25 µg/mL,0.5 µg/mL,8 µg/mL,–
"O=C(O)c1cn(C2CCN(c3c(F)cc4c(=O)c(C(=O)O)cn(C5CC5)c4c3F)C2)nn1 (stereo not shown) [Example 45, 1-cyclopropyl-6,8-difluoro-7-[3-(4-carboxyl-1,2,3-triazol-1-yl)pyrrolidin-1-yl]-1,4-dihydro-4-oxo-quinoline-3-carboxylic acid]",–,–,–,–,0.25 µg/mL,–,1 µg/mL
"O=C(O)c1cn(C2CC2)c2c(F)c(N3CCC(n4ncnn4)C3)c(F)cc2c1=O (stereo not shown) [Example 51, 1-Cyclopropyl-6,8-difluoro-7-[3-(1,2,3,4-tetrazol-2-yl)pyrrolidin-1-yl]-1,4-dihydro-4-oxo-quinoline-3-carboxylic acid]",–,0.12 µg/mL,0.12 µg/mL,≤ 0.03 µg/mL,0.06 µg/mL,2 µg/mL,≤ 0.03 µg/mL
"O=C(O)c1cn(C2CC2)c2c(F)c(N3CCC(n4cnnn4)C3)c(F)cc2c1=O (stereo not shown) [Example 52, 1-Cyclopropyl-6,8-fluoro-7-[3-(1,2,3,4-tetrazol-1-yl)pyrrolidin-1-yl]-1,4-dihydro-4-oxo-quinoline-3-carboxylic acid]",–,0.12 µg/mL,0.25 µg/mL,0.06 µg/mL,0.06 µg/mL,2 µg/mL,–
